Results reported in ChEMBL document CHEMBL5465560, “Selectivity Literature for EUbOPEN Chemogenomic Library” (2024).

Key:
[1] = molecular target: Mitogen-activated protein kinase kinase kinase kinase 5 (Homo sapiens) (UniProt Q9Y4K4); assay: Selectivity interaction (KinomeScan (DiscoverX)) EUB0000229b MAP4K5; details: at 10 µM
[2] = molecular target: Serine/threonine-protein kinase 10 (Homo sapiens) (UniProt O94804); assay: Selectivity interaction (KinomeScan (DiscoverX)) EUB0000229b STK10; details: at 10 µM
[3] = test system: Mast/stem cell growth factor receptor Kit (Homo sapiens), P10721 [A829P]; assay: (§1) Selectivity interaction (KinomeScan (DiscoverX)) EUB0000045b KIT
[4] = test system: Mast/stem cell growth factor receptor Kit (Homo sapiens), P10721 [D816H]; assay: as §1
Sequence of Mast/stem cell growth factor receptor Kit (Homo sapiens), P10721 [D816H] (P10721 whole entry D816H): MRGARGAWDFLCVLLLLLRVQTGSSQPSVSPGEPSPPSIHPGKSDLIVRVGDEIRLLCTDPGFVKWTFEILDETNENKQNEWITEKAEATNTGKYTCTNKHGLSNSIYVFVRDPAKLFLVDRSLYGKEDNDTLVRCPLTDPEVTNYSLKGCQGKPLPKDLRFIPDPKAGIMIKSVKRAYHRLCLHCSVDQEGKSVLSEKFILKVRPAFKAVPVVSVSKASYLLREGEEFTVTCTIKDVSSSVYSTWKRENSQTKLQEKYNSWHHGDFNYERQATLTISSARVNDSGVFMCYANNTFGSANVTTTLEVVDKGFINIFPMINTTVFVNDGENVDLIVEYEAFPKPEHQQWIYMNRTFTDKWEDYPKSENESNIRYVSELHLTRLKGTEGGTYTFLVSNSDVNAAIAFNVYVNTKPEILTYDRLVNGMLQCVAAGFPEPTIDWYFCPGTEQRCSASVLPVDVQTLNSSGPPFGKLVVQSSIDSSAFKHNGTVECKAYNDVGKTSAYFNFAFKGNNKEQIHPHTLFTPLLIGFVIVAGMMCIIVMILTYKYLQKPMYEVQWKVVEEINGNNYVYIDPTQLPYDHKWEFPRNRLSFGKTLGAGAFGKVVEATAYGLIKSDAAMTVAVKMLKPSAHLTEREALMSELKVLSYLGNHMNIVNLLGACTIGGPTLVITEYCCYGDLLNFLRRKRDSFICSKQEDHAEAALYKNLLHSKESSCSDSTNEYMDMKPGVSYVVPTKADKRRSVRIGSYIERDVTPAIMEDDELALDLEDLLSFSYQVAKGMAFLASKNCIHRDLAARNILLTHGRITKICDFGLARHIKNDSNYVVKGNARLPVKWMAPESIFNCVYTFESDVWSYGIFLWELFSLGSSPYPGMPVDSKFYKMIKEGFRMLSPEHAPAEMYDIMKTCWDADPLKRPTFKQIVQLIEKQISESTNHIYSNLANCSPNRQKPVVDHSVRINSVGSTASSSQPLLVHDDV

[5] = test system: Mast/stem cell growth factor receptor Kit (Homo sapiens), P10721 [D816V]; assay: as §1
[6] = test system: Mast/stem cell growth factor receptor Kit (Homo sapiens), P10721 [L576P]; assay: as §1
Sequence of Mast/stem cell growth factor receptor Kit (Homo sapiens), P10721 [L576P] (P10721 whole entry L576P): as the sequence (P10721 whole entry D816H) above, with L576P, H816D counted along it

[7] = test system: Mast/stem cell growth factor receptor Kit (Homo sapiens), P10721 [V559D,T670I]; assay: as §1
[8] = test system: Mast/stem cell growth factor receptor Kit (Homo sapiens), P10721 [V559D,V654A]; assay: as §1
Sequence of Mast/stem cell growth factor receptor Kit (Homo sapiens), P10721 [V559D,V654A] (P10721 whole entry V559D/V654A): as the sequence (P10721 whole entry D816H) above, with V559D, V654A, H816D counted along it

[9] = test system: Mast/stem cell growth factor receptor Kit (Homo sapiens), P10721 [V559D]; assay: as §1
Sequence of Mast/stem cell growth factor receptor Kit (Homo sapiens), P10721 [V559D] (P10721 whole entry V559D): as the sequence (P10721 whole entry D816H) above, with V559D, H816D counted along it

[10] = molecular target: Mast/stem cell growth factor receptor Kit (Homo sapiens, UniProt P10721); assay: as §1
[11] = molecular target: Myosin light chain kinase, smooth muscle (Homo sapiens, UniProt Q15746); assay: Selectivity interaction (KinomeScan (DiscoverX)) EUB0000045b MYLK
[12] = molecular target: T1, Inhibitor of nuclear factor kappa-B kinase subunit beta (Homo sapiens) (UniProt O14920); assay: Selectivity interaction (KinomeScan (DiscoverX)) EUB0001079a IKBKB; details: at 1 µM
T1 sequence (whole entry): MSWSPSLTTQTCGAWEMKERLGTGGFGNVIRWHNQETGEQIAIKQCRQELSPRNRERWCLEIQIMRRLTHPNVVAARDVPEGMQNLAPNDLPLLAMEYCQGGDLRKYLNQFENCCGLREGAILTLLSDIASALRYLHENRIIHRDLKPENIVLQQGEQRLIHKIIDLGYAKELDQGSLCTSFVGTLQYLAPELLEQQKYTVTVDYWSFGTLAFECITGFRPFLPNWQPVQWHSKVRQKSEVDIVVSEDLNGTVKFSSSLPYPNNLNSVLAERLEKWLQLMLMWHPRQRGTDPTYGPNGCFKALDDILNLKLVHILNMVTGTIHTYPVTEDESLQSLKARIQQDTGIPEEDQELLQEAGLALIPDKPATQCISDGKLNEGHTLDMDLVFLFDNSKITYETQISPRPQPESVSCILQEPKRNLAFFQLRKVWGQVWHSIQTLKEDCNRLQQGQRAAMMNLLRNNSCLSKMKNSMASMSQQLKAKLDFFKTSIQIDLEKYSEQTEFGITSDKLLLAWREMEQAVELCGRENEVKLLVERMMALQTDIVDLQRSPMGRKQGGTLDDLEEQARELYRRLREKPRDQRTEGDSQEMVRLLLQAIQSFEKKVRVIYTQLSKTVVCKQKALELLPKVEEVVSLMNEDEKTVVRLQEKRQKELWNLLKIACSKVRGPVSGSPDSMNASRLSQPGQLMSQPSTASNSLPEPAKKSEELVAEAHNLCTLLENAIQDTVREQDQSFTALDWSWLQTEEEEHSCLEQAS

[13] = molecular target: Protein arginine N-methyltransferase 5 (Homo sapiens, UniProt O14744); assay: Selectivity interaction (Methyltransferase screen (radiometric assays, panel of 8 PRMTs, 21 protein lysine methyltransferases, 3 DNA methyltransferases, and one RNA methyltransferase)) EUB0000272b PRMT5
Sequence of Protein arginine N-methyltransferase 5 (O14744 whole entry): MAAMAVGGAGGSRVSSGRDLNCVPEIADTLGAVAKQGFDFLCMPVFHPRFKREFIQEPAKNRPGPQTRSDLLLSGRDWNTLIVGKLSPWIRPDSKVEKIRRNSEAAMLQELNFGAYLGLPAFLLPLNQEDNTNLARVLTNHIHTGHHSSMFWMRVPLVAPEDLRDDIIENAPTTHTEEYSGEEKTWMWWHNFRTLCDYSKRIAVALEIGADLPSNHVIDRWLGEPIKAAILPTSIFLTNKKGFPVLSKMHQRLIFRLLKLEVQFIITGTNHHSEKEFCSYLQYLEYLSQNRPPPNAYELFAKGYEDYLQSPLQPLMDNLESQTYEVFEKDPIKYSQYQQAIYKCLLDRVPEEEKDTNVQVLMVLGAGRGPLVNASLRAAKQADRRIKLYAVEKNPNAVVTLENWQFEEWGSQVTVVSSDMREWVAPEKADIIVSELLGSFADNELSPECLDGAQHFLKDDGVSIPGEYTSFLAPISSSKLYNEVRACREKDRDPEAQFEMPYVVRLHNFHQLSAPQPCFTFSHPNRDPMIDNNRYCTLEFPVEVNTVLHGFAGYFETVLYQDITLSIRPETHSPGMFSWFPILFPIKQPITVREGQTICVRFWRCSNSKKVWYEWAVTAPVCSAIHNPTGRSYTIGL

[14] = molecular target: Receptor tyrosine-protein kinase erbB-2 (Homo sapiens, UniProt P04626); assay: Selectivity interaction (KinomeScan (DiscoverX)) EUB0000666a ERBB2; details: at 10 µM
[15] = molecular target: Serine/threonine-protein kinase PAK 1 (Homo sapiens) (UniProt Q13153); assay: Selectivity interaction (KinomeScan (DiscoverX)) EUB0000666a PAK1; details: at 10 µM
[16] = molecular target: Substance-K receptor (Homo sapiens) (UniProt P21452); assay: Selectivity interaction (Eurofins CEREP Diversity Profile (receptors and ion channels)) EUB0000279b TACR2; details: at 10 µM
[17] = molecular target: Dual specificity protein kinase CLK1 (Homo sapiens, UniProt P49759); assay: Selectivity interaction (KinomeScan (DiscoverX)) EUB0001049a CLK1; details: at 1 µM
[18] = molecular target: Dual specificity mitogen-activated protein kinase kinase 1 (Homo sapiens, UniProt Q02750); assay: Selectivity interaction (Upstate Kinase Profiler service (Millipore)) EUB0000056c MAP2K1; details: at 1 µM
[19] = molecular target: Cyclin-dependent kinase 5 (Homo sapiens, UniProt Q00535); assay: Selectivity interaction (ActivX KiNativ screen (ex vivo kinase selectivity in human PBMCs)) EUB0001619a CDK5; assay type: cell-based; details: PBMC, at 1 µM
Sequence of Cyclin-dependent kinase 5 (Q00535 whole entry, looked up): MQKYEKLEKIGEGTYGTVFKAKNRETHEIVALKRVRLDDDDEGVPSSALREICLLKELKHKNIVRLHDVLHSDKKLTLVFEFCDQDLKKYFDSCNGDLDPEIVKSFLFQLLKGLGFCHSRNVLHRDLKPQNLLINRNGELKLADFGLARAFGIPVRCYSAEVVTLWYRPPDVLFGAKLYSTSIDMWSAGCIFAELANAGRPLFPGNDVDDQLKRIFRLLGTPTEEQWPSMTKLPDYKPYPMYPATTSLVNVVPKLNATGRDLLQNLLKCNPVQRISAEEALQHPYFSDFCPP

[20] = molecular target: DNA-dependent protein kinase catalytic subunit (Homo sapiens) (UniProt P78527); assay: Selectivity interaction (ActivX KiNativ screen (ex vivo kinase selectivity in human PBMCs)) EUB0001619a PRKDC; assay type: cell-based; details: PBMC, at 1 µM
[21] = molecular target: Ribosomal protein S6 kinase alpha-3 (Homo sapiens, UniProt P51812); assay: Selectivity interaction (ActivX KiNativ screen (kinase selectivity in THP-1 cell lysates)) EUB0000639a RPS6KA3; assay type: subcellular; details: lysate, at 0.01 µM
[22] = molecular target: NT-3 growth factor receptor (Homo sapiens, UniProt Q16288); assay: Selectivity interaction (KinomeScan (DiscoverX)) EUB0000655a NTRK3; details: at 10 µM
[23] = molecular target: Casein kinase I isoform gamma-1 (Homo sapiens) (UniProt Q9HCP0); details: at 10 µM
[24] = molecular target: Serine/threonine-protein kinase MRCK alpha (Homo sapiens) (UniProt Q5VT25); assay: Selectivity interaction (Ambit KINOMEscan) EUB0000092b CDC42BPA; details: at 10 µM
[25] = molecular target: SRSF protein kinase 2 (Homo sapiens) (UniProt P78362); assay: Selectivity interaction (Ambit KINOMEscan and KiNATiv profiling in Jurkat cells) EUB0000090b SRPK2; assay type: cell-based; details: at 1 µM

With COc1cc(N(C)c2ccnc3ccc(C(F)(F)F)cc23)cc(OC)c1OC the % binding [1] was 97% and the % binding [2] was 84%.
C=CC(=O)Nc1cc(-n2c(=O)ccc3cnc4ccc(-c5ccc(NS(C)(=O)=O)cc5)cc4c32)ccc1C was tested, and the % of control ([3]; at 1 µM) was 74%, the % of control ([3]; at 10 µM) was 81% and the % of control ([4]; at 1 µM) was 99%. For the same molecule, the % of control ([4]; at 10 µM) was 100%, the % of control ([5]; at 1 µM) was 69% and the % of control ([5]; at 10 µM) was 73%. The % of control ([6]; at 1 µM) was 100%, the % of control ([6]; at 10 µM) was 83% and the % of control ([7]; at 1 µM) was 100%. The % of control ([7]; at 10 µM) was 91%, the % of control ([8]; at 1 µM) was 100% and the % of control ([8]; at 10 µM) was 100%. It also gave a % of control ([9]; at 1 µM) of 87%, a % of control ([9]; at 10 µM) of 88% and a % of control ([10]; at 1 µM) of 89%. The % of control ([10]; at 10 µM) was 89%, the % of control ([11]; at 1 µM) was 90% and the % of control ([11]; at 10 µM) was 100%.
Work on Nc1cnc(N2CCc3cc(S(=O)(=O)Nc4c(F)cc(Cl)cc4F)cc(N4CCCC4=O)c32)nc1 [TP-020n] yielded a % of control [12] of 96%.
Work on Cc1cc(C)cc([C@H]2c3cc(C)ccc3NC(=O)CN2C(=O)c2ccc(Br)s2)c1 yielded a % of activity ([13]; at 1 µM) of 98.7% and a % of activity ([13]; at 10 µM) of 99%.
Work on O=C(NOC[C@H](O)CO)c1ccc(F)c(F)c1Nc1ccc(I)cc1F yielded a % of control [14] of 100% and a % of control [15] of 100%.
With CC(=O)c1cc(-c2ccccc2OCC2CC2)c2ncccn12 the % of control [16] was 92%.
With COc1cc(Nc2nc(C)cc(-c3cnn4nc(OC)ccc34)n2)cc(C(F)(F)F)c1 the % of control [17] was 100%.
Cc1ccc(-c2ccc3c(ccc4sc5c(c43)NC[C@@H](C)NC5=O)n2)cn1 was tested, and the % of inhibition [18] was -8%.
Molecule N#Cc1cccc(-c2c[nH]c3ncnc(N4CCOCC4)c23)c1 has a % of inhibition [19] of 0% and a % of inhibition [20] of 15%.
CC[C@@H]1[C@H](F)C(=O)N[C@@H]1COc1nccc2cc(C(N)=O)c(OC)cc12 [ZIMLOVISERTIB] was tested, and the % of inhibition [21] was 17.5%.
With CN(C)CCOc1ccc(-c2nc(-c3ccncc3)c(-c3ccc4c(c3)CC/C4=N\O)[nH]2)cc1 the % of control [22] was 45%.
Work on CCN(CC)CCCCNc1ncc2cc(-c3cc(OC)cc(OC)c3)c(NC(=O)NC(C)(C)C)nc2n1 yielded a % of control [23] of 100%.
Molecule CCC(=O)N1CCN(c2ccc(-n3c(=O)ccc4cnc5ccc(-c6cnc7ccccc7c6)cc5c43)cc2C(F)(F)F)CC1 has a % of control [24] of 0.65%.
With CN(C)C/C=C/C(=O)Nc1ccc(C(=O)N2CCCC(Nc3ncc(Cl)c(-c4c[nH]c5ccccc45)n3)C2)cc1 (stereo not given) the % of control [25] was 98%.
